Assay results reported in patent US20240025892A1 (priority 2020, published 2024).

Legend:
Recombinant SIK2 = Recombinant SIK2 (Homo sapiens (Human), UniProt Q9H0K1); test: biochemical; conditions: recombinant SIK2 2.5 nM, 1 μM ATP; read-out: SIK2 IC50
Protocol: (§1) Assays were performed in base reaction buffer (20 mM Hepes (pH 7.5), 10 mM MgCl2, 1 mM EGTA, 0.02% Brij35, 0.02 mg/mL BSA, 0.1 mM Na3VO4, 2 mM DTT, 1% DMSO). Compounds were dissolved in 100% DMSO in a 10 mM stock. […] Assays were performed for 20 minutes at room temperature, after which time ^33P-ATP (10 μCi/μL) was added followed by incubation for another 120 minutes at room temperature. Thereafter, radioactivity incorporated into the pEY peptide substrate was detected by filter-binding method. Kinase activity data were expressed as the percent remaining kinase activity in test samples compared to DMSO reactions. IC50 values and curve fits were obtained using Prism (GraphPad Software).

SIK3 = SIK3 (Homo sapiens (Human), UniProt Q9Y2K2); test: In vitro SIK3 kinase assay; assay type: biochemical
SIK3, sequence (Q9Y2K2 whole entry): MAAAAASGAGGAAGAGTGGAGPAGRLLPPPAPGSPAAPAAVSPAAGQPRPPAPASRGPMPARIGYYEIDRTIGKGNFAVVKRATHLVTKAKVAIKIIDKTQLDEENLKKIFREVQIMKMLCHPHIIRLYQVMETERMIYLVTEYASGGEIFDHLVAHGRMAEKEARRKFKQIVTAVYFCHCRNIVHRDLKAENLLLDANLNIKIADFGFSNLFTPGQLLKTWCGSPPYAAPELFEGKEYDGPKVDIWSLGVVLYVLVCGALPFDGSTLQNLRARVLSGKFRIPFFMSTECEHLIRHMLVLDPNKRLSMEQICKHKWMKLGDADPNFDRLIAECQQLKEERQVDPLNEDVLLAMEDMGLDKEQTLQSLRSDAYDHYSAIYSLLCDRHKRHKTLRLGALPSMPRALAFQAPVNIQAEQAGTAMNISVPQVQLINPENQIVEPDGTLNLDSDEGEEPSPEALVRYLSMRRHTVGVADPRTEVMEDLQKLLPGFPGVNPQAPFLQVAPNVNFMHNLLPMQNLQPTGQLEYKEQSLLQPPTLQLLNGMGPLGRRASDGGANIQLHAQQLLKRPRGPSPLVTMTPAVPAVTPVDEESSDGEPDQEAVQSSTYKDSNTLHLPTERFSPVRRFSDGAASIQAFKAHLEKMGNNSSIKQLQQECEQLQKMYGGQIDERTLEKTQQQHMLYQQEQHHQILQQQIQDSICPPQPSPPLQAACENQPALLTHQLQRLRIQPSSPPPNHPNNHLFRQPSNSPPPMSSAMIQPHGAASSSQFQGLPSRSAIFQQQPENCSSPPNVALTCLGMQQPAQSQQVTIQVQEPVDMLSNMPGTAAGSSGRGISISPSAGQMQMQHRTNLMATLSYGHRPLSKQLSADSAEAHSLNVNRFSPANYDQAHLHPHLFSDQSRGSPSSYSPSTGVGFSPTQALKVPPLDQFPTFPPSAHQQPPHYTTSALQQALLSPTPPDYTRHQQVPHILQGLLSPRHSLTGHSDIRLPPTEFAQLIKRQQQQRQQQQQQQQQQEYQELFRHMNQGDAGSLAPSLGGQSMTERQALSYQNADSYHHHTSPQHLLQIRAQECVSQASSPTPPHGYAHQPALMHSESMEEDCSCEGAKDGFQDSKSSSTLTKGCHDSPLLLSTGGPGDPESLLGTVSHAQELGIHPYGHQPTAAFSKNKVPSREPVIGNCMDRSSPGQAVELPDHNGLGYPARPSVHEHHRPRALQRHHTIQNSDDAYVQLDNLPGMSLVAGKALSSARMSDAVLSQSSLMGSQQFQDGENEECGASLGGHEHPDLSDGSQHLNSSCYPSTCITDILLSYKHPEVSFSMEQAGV
Protocol: as §1

RANKL = RANKL gene expression in Ocy454 cells (RT-qPCR); conditions: maximal RANKL fold induction versus DMSO, four hours;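 note: Ocy454 cells moved to 37 °C for osteocytic differentiation before compound exposure, RANKL mRNA by SYBR Green qRT-PCR, 2^−ΔΔCT with β-actin normalization, duplicate wells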
SIK1 = SIK1 (Homo sapiens (Human), UniProt P57059); test: In vitro SIK1 kinase assay; assay type: biochemical
SIK1, sequence (P57059 whole entry): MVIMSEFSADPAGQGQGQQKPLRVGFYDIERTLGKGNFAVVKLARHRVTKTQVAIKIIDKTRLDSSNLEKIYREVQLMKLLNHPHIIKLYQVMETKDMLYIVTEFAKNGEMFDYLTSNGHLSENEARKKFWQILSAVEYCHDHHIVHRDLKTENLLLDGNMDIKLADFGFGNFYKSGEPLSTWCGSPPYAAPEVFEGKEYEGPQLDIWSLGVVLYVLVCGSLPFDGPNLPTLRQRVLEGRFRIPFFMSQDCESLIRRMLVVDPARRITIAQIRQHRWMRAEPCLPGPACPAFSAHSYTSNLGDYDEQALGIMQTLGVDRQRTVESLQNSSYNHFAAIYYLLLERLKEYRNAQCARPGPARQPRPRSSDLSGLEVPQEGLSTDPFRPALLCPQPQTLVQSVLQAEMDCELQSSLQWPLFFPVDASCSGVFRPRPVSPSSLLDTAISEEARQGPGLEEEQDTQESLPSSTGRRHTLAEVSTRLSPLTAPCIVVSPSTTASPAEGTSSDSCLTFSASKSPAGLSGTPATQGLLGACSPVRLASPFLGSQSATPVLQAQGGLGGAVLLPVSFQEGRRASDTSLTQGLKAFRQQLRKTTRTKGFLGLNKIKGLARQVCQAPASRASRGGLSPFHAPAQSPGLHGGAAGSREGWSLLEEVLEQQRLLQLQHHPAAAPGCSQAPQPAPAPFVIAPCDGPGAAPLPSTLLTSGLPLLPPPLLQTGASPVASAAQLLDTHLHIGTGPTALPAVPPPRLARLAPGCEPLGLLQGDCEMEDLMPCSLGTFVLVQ
Protocol: as §1

CRTC2 (TORC2) = test: CRTC2 nuclear translocation (PathHunter U2OS); assay type: cell-based; conditions: maximal CRTC2 nuclear translocation, U2OS cells, 90 minutes, maximum dose 10 μM
Excerpt: PathHunter® Nuclear Translocation cell lines are engineered to co-express two fusion proteins: a) Enzyme Donor (ED) tagged target protein; b) an Enzyme Acceptor (EA) tagged TAZ domain, derived from the CBP/P300 transcription factor, that localizes to the nucleus. Activation of the signaling pathway induces translocation of the ED-tagged target protein into the nucleus, which will force complementation of the two enzyme fragments, and result in the formation of a functional enzyme that will hydrolyze substrate and generate a chemiluminescent signal. U2OS CRTC2 (TORC2) translocation assays were performed in 384 well plates at Eurofins DiscoverX (Freemont, CA). Cells were treated with compounds for 90 minutes in experimental duplicates in 5 point dose response format (4-fold serial dilutions with a maximum dose of 10 μM) followed by […] readout on an Envision 2104 Multilabel Reader. In all experiments, forskolin was used as a positive control and maximal CRTC2 nuclear translocation induced by each compound is expressed as a percentage of the signal stimulated by forskolin.
Representative data are shown in FIG. 4A and presented as percent of the positive control (forskolin) signal.

Recombinant SIK2, sequence (Q9H0K1 whole entry): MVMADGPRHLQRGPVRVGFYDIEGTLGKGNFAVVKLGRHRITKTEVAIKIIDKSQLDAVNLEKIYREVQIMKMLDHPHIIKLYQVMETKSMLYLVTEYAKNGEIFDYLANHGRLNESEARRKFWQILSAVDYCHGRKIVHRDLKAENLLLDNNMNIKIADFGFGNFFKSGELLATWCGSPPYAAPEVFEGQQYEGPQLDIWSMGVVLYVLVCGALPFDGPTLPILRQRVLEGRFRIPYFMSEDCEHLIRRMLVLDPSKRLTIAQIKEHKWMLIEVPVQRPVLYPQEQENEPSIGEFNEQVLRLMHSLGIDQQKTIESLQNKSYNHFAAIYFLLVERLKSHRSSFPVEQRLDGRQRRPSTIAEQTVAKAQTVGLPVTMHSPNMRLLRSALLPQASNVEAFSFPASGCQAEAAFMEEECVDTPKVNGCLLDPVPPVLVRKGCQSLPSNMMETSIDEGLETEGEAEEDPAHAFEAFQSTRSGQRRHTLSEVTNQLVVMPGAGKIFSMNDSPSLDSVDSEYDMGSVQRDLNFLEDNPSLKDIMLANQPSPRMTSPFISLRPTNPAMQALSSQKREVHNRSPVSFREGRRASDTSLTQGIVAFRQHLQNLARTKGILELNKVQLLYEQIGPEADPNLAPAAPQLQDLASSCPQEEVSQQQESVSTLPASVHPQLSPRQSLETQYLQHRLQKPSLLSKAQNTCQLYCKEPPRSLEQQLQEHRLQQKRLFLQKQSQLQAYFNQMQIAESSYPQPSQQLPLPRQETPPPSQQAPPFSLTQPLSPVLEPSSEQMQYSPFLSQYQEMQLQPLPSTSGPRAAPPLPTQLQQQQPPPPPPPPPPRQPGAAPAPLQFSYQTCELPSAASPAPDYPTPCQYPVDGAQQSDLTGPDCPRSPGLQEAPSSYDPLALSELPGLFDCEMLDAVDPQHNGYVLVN

For `COc1cc(-c2cnc3cc(C(=O)NCc4ccc(C)nc4)ccn23)cc(OC)c1C(=O)NCC(F)(F)F` [Example 68, 3-[3,5-Dimethoxy-4-(2,2,2-trifluoroethylcarbamoyl)phenyl]-N-[(6-methyl-3-pyridyl)methyl]imidazo[1,2-a]pyridine-7-carboxamide], which IC50 (Recombinant SIK2) is on record?
The IC50 was 12.4 nM.

What about the IC50 (SIK3) of the same molecule?
Its IC50 is 8.67 nM.

And the “RANKL Fold Induction” value (RANKL)?
Its value is 2.88 fold.

And the IC50 (SIK1)?
Its IC50 is 94.7 nM.

And the “CRTC2 Efficacy (% of forskolin)” value (CRTC2 (TORC2))?
Its value is 12 % of forskolin.

With `Cc1ccc(CCOc2ccn3c(-c4ccc(C#N)cc4)cnc3c2)cn1` [Example 41, 4-[7-[2-(6-Methyl-3-pyridyl)ethoxy]imidazo[1,2-a]pyridin-3-yl]benzonitrile] as the molecule, how does the IC50 (SIK3) read?
The IC50 was 12.6 nM.

And the “RANKL Fold Induction” value (RANKL)?
Its value is 2.61 fold.

What about the IC50 (SIK1) of the same molecule?
Its IC50 is 233 nM.

What about the “CRTC2 Efficacy (% of forskolin)” value (CRTC2 (TORC2)) of the same molecule?
Its value is 44.2 % of forskolin.

For `CN1CCOCC12CCN(c1cccc3ccc(-n4cnc5cc(OCC6(C)COC6)ccc54)nc13)CC2` [Example 10, 1-Methyl-9-[2-[5-[(3-methyloxetan-3-yl)methoxy]benzimidazol-1-yl]-8-quinolyl]-4-oxa-1,9-diazaspiro[5.5]undecane], which IC50 (Recombinant SIK2) is on record?
The IC50 was 2.11 nM.

And the IC50 (SIK3)?
The IC50 was 3.71 nM.

And the “RANKL Fold Induction” value (RANKL)?
The value was 58.64 fold.

What about the IC50 (SIK1) of the same molecule?
The IC50 was 37.8 nM.

What about the “CRTC2 Efficacy (% of forskolin)” value (CRTC2 (TORC2)) of the same molecule?
The value was 75.8 % of forskolin.

`CN1CC(c2cccc3ccc(-n4cnc5cc(OCC6(C)COC6)ccc54)nc23)C1` [Example 15, 8-(1-Methylazetidin-3-yl)-2-(5-((3-methyloxetan-3-yl)methoxy)-1H-benzo[d]imidazol-1-yl)quinoline] was tested. Which IC50 (Recombinant SIK2) did it give?
Its IC50 is 1.91 nM.

And the IC50 (SIK3)?
Its IC50 is 1.12 nM.

And the “RANKL Fold Induction” value (RANKL)?
Its value is 88.34 fold.

And the IC50 (SIK1)?
Its IC50 is 4.37 nM.

And the “CRTC2 Efficacy (% of forskolin)” value (CRTC2 (TORC2))?
The value was 63.5 % of forskolin.

`CCc1nnc(-c2c(OC)cc(-c3cnc4cc(OCc5ccc(C)nc5)ccn34)cc2OC)o1` [Example 42, 2-[2,6-Dimethoxy-4-[7-[(6-methyl-3-pyridyl)methoxy]imidazo[1,2-a]pyridin-3-yl]phenyl]-5-ethyl-1,3,4-oxadiazole] was tested. Which IC50 (Recombinant SIK2) did it give?
Its IC50 is 37 nM.

And the IC50 (SIK3)?
Its IC50 is 47 nM.

What about the IC50 (SIK1) of the same molecule?
Its IC50 is 1180 nM.

Which results are given for `CCc1nnc(-c2c(OC)cc(-c3cnc4cc(OCC5(C)COC5)ccn34)cc2OC)o1` [Example 39, 2-(2,6-dimethoxy-4-(7-((3-methyloxetan-3-yl)methoxy)imidazo[1,2-a]pyridin-3-yl)phenyl)-5-ethyl-1,3,4-oxadiazole]?
IC50 (Recombinant SIK2): 136 nM; IC50 (SIK3): 83.6 nM; IC50 (SIK1): 2680 nM

Which IC50 (Recombinant SIK2) does the source give for `N#Cc1ccc(-c2cnc3cc(C(=O)N4CCn5c(nc6ccccc65)C4)ccn23)cc1` [Example 28, 4-(7-(1,2,3,4-tetrahydrobenzo[4,5]imidazo[1,2-a]pyrazine-2-carbonyl)imidazo[1,2-a]pyridin-3-yl)benzonitrile] here?
Its IC50 is 597 nM.

What about the IC50 (SIK3) of the same molecule?
Its IC50 is 8090 nM.

And the “RANKL Fold Induction” value (RANKL)?
Its value is 1.25 fold.

What about the “CRTC2 Efficacy (% of forskolin)” value (CRTC2 (TORC2)) of the same molecule?
The value was 3.4 % of forskolin.

Which IC50 (Recombinant SIK2) does the source give for `CCc1nc(-c2c(OC)cc(-c3cnc4cc(-c5cnn(C)c5)ccn34)cc2OC)no1` [Example 61, 3-[2,6-Dimethoxy-4-[7-(1-methylpyrazol-4-yl)imidazo[1,2-a]pyridin-3-yl]phenyl]-5-ethyl-1,2,4-oxadiazole] here?
The IC50 was 3.07 nM.

What about the IC50 (SIK3) of the same molecule?
The IC50 was 8.25 nM.

And the “RANKL Fold Induction” value (RANKL)?
The value was 19.00 fold.

What about the IC50 (SIK1) of the same molecule?
Its IC50 is 37.8 nM.

What about the “CRTC2 Efficacy (% of forskolin)” value (CRTC2 (TORC2)) of the same molecule?
The value was 76.9 % of forskolin.

How did the IC50 (Recombinant SIK2) turn out when `N#Cc1ccc(-c2cnc3cc(C(=O)NCc4nc5ccncc5[nH]4)ccn23)cc1` [Example 25, N-((3H-imidazo[4,5-c]pyridin-2-yl)methyl)-3-(4-cyanophenyl)imidazo[1,2-a]pyridine-7-carboxamide] was run?
The IC50 was 9.74 nM.

What about the IC50 (SIK3) of the same molecule?
Its IC50 is 1190 nM.

And the “RANKL Fold Induction” value (RANKL)?
The value was 1.10 fold.

What about the IC50 (SIK1) of the same molecule?
The IC50 was 5450 nM.

And the “CRTC2 Efficacy (% of forskolin)” value (CRTC2 (TORC2))?
The value was 1.6 % of forskolin.

Which IC50 (Recombinant SIK2) does the source give for `COc1cc(-c2cnc3cc(-c4cnn(C)c4)ccn23)cc(OC)c1-c1nnc(C2CC2)o1` [Example 60, 2-cyclopropyl-5-(2,6-dimethoxy-4-(7-(1-methyl-1H-pyrazol-4-yl)imidazo[1,2-a]pyridin-3-yl)phenyl)-1,3,4-oxadiazole] here?
The IC50 was 1.49 nM.

And the IC50 (SIK3)?
Its IC50 is 1.64 nM.

What about the “RANKL Fold Induction” value (RANKL) of the same molecule?
The value was 307.25 fold.

And the IC50 (SIK1)?
Its IC50 is 4.45 nM.

For `CCn1cc(-c2ccn3c(-c4ccc(-c5nnc(C)o5)cc4)cnc3c2)cn1` [Example 56, 2-(4-(7-(1-ethyl-1H-pyrazol-4-yl)imidazo[1,2-a]pyridin-3-yl)phenyl)-5-methyl-1,3,4-oxadiazole], which IC50 (Recombinant SIK2) is on record?
Its IC50 is 533 nM.

And the IC50 (SIK3)?
Its IC50 is 617 nM.

And the “RANKL Fold Induction” value (RANKL)?
Its value is 2.18 fold.

What about the IC50 (SIK1) of the same molecule?
Its IC50 is 3120 nM.

What about the “CRTC2 Efficacy (% of forskolin)” value (CRTC2 (TORC2)) of the same molecule?
Its value is 4.9 % of forskolin.

For `CC1(COc2ccc3c(c2)ncn3-c2ccc3cccc(C4CCNC4)c3n2)COC1` (centres unmarked) [Example 16, 2-(5-((3-Methyloxetan-3-yl)methoxy)-1H-benzo[d]imidazol-1-yl)-8-(pyrrolidin-3-yl)quinoline], which IC50 (Recombinant SIK2) is on record?
The IC50 was 3.39 nM.

What about the IC50 (SIK3) of the same molecule?
The IC50 was 4.43 nM.

And the “RANKL Fold Induction” value (RANKL)?
The value was 27.76 fold.

What about the IC50 (SIK1) of the same molecule?
The IC50 was 16.6 nM.

How did the IC50 (Recombinant SIK2) turn out when `Cn1c(CNC(=O)c2ccn3c(-c4ccc(C#N)cc4)cnc3c2)nc2ccccc21` [Example 23, 3-(4-cyanophenyl)-N-((1-methyl-1H-benzo[d]imidazol-2-yl)methyl)imidazo[1,2-a]pyridine-7-carboxamide] was run?
The IC50 was 14.3 nM.

And the IC50 (SIK3)?
The IC50 was 861 nM.

And the “CRTC2 Efficacy (% of forskolin)” value (CRTC2 (TORC2))?
The value was 19.8 % of forskolin.

`CN(Cc1nc2ccccc2n1C)C(=O)c1ccn2c(-c3ccc(C#N)cc3)cnc2c1` [Example 29, 3-(4-Cyanophenyl)-N-methyl-N-[(1-methylbenzimidazol-2-yl)methyl]imidazo[1,2-a]pyridine-7-carboxamide] was tested. Which IC50 (Recombinant SIK2) did it give?
Its IC50 is 608 nM.

What about the IC50 (SIK3) of the same molecule?
Its IC50 is 8340 nM.

What about the “RANKL Fold Induction” value (RANKL) of the same molecule?
The value was 1.48 fold.

And the “CRTC2 Efficacy (% of forskolin)” value (CRTC2 (TORC2))?
Its value is 2.8 % of forskolin.

What does the source list for `CCc1nnc(-c2c(OC)cc(-c3cnn4cc(-c5cnn(C6CC6)c5)ccc34)cc2OC)o1` [Example 53, 2-(4-(6-(1-cyclopropyl-1H-pyrazol-4-yl)pyrazolo[1,5-a]pyridin-3-yl)-2,6-dimethoxyphenyl)-5-ethyl-1,3,4-oxadiazole]?
IC50 (Recombinant SIK2): 1.77 nM; IC50 (SIK3): 2.62 nM; IC50 (SIK1): 17.4 nM

Which IC50 (Recombinant SIK2) does the source give for `CN1CCC(c2cccc3ccc(-n4cnc5cc(OCC6(C)COC6)ccc54)nc23)C1` (centres unmarked) [Example 17, 2-(5-((3-Methyloxetan-3-yl)methoxy)-1H-benzo[d]imidazol-1-yl)-8-(1-methylpyrrolidin-3-yl)quinoline] here?
The IC50 was 1.04 nM.

And the IC50 (SIK3)?
The IC50 was 15.4 nM.

And the “RANKL Fold Induction” value (RANKL)?
The value was 12.73 fold.

And the IC50 (SIK1)?
The IC50 was 53.3 nM.

What does the source list for `CCn1cc(-c2ccn3c(-c4ccc(-c5noc(C)n5)cc4)cnc3c2)cn1` [Example 62, 3-(4-(7-(1-Ethyl-1H-pyrazol-4-yl)imidazo[1,2-a]pyridin-3-yl)phenyl)-5-methyl-1,2,4-oxadiazole]?
IC50 (Recombinant SIK2): 253 nM; IC50 (SIK3): 1090 nM; IC50 (SIK1): 1130 nM; CRTC2 Efficacy (% of forskolin) (CRTC2 (TORC2)): 8.6 % of forskolin

Which IC50 (Recombinant SIK2) does the source give for `CC1(COc2ccn3c(-c4ccc(C#N)cc4)cnc3c2)COC1` [Example 38, 4-[7-[(3-Methyloxetan-3-yl)methoxy]imidazo[1,2-a]pyridin-3-yl]benzonitrile] here?
Its IC50 is 211 nM.

What about the “RANKL Fold Induction” value (RANKL) of the same molecule?
The value was 0.37 fold.

And the “CRTC2 Efficacy (% of forskolin)” value (CRTC2 (TORC2))?
Its value is 10.1 % of forskolin.

What does the source list for `CCn1cc(-c2ccn3c(-c4ccc(C#N)c(C)c4)cnc3c2)cn1` [Example 47, 4-(7-(1-ethyl-1H-pyrazol-4-yl)imidazo[1,2-a]pyridin-3-yl)-2-methylbenzonitrile]?
IC50 (Recombinant SIK2): 0.855 nM; IC50 (SIK3): 4.16 nM; RANKL Fold Induction (RANKL): 17.43 fold; IC50 (SIK1): 8.34 nM
